The values below come from patent US20110028455A1, “Indole-substituted 3-cyanopyridines As Kinase Inhibitors” (Wyeth LLC, priority 2007, published 2011).

Series [1] deals with T1, human PKCθ full length enzyme (Homo sapiens, UniProt Q04759).
T1 construct: human PKCθ full length enzyme (Panvera Cat# P2996); purchased Panvera P2996
In words: PKCθ IMAP Assay. The format is biochemical. Particulars: PKCθ 1 nM; ATP 6 μM; peptide 100 nM; DMSO 5%; 25 minutes at room temperature; FP readout; read-out: PKC-Theta Mean IC50. How it is done: The materials used include the following: human PKCθ full length enzyme (Panvera Cat# P2996); substrate peptide: 5FAM-RFARKGSLRQKNV-OH (Molecular Devices, RP7032); ATP (Sigma Cat # A2383); DTT (Pierce, 20291); 5× kinase reaction buffer (Molecular Devices, R7209); 5× binding buffer A (Molecular Devices, R7282), 5× binding buffer B (Molecular Devices, R7209); IMAP Beads (Molecular Devices, R7284); and 384-well plates (Corning Costar, 3710).
The reaction buffer was prepared by diluting the 5× stock reaction buffer and adding DTT to obtain a concentration of 3.0 mM. The binding buffer was prepared by diluting the 5× binding buffer A. A master mix solution was prepared using a 90% dilution of the reaction buffer containing 2×ATP (12 uM) and 2× peptide (200 nm). Compounds were diluted in DMSO to 20× of the maximum concentration for the IC50 measurement. 27 μl of the master mix solution for each IC50 curve was added to the first column in a 384-well plate and 3 μl of 20× compound in DMSO was added to each well.
The final concentration of compound was 2× and 10% DMSO. DMSO was added to the rest of the master mix to increase the concentration to 10%. 10 μl of the master mix containing 10% DMSO was added to the rest of the wells on the plate except the 2nd column. 20 μl was transferred from the first column to the 2nd column. The compounds were serially diluted in 2:1 ratio starting from the 2nd column. A 2×(2 nM) PKCθ solution was made in the reaction buffer. 10 μl of the PKCθ solution was added to every well to achieve these final concentrations: PKCθ-1 nM; ATP-6 μM; peptide-100 nM; DMSO-5%. Samples were incubated for 25 minutes at room temperature. The binding reagent was prepared by diluting the beads in 1× binding buffer to 800:1. 50 μl of the binding reagent was added to every well and incubated for 20 minutes. FP was measured using Envision2100 (PerkinElmer Life Sciences). Wells with no ATP and wells with no enzyme were used as controls.

Series [2] is described as follows: Metabolic stability in rat liver microsomes. The format is in vitro ADME. Conditions: 30 minutes incubation, remaining compound by HPLC, 6-Me compounds of the invention, read-out: Rat Microsome Stability of 6-Me cyanopyridine Compounds (approximate half life). How it is done: In order to probe the metabolic stability of the compounds of the invention, a series of compounds were selected for stability testing in rat liver microsomes. A DMSO solution of each compound was incubated for 30 minutes in the presence of rat liver homogenate. The percentage of remaining compound was assessed by HPLC. An approximate half life was calculated from the percentage of remaining compound. Table II, below, illustrates a comparison of the in vitro microsomal half life of the selected compounds verses a series of related compounds lacking the C-6 alkyl group. […] It is generally accepted in the industry that improved in vitro metabolic stability frequently translates into improved in vivo metabolic stability. Improved metabolic stability may translate to increased in vivo exposure levels.

Each structure is given as a SMILES string. Where only a bound is given, the exact number is not on record here.

T1 sequence (Q04759 whole entry): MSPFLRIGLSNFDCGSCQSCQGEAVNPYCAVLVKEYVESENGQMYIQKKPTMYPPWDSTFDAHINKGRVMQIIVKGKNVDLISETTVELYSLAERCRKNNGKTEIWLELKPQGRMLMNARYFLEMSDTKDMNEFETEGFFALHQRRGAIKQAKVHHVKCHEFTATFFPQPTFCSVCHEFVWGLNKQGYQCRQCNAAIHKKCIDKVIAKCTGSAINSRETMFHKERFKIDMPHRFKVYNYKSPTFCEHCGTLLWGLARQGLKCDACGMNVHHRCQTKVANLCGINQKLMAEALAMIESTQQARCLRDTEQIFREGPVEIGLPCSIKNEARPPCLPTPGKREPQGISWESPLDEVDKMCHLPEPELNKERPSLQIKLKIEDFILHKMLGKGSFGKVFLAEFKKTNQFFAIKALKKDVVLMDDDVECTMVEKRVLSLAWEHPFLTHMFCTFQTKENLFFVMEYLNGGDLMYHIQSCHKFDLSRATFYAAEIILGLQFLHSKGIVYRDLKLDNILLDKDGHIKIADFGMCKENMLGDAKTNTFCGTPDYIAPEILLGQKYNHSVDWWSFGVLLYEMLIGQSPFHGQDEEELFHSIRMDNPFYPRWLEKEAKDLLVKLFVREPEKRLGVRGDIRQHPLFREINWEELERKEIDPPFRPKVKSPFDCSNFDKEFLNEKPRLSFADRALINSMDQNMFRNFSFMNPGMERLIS

In the case of `COc1ccc(-c2c(C)ncc(C#N)c2Nc2ccc3[nH]ccc3c2C)cc1OC` [Example 9, 5-(3,4-dimethoxyphenyl)-6-methyl-4-[(4-methyl-1H-indol-5-yl)amino]nicotinonitrile], the melting point (in general, the temperature, or range, at which the solid turns liquid) was 202 to 203 °C. Moreover, the IC50 (in general, the point on the concentration scale where inhibition reaches its midpoint) in series [1] is 67 nM.

In turn, `Cc1ncc(C#N)c(Nc2cccc3[nH]ccc23)c1-c1cc2ccccc2o1` [Example 10, 5-(1-benzofuran-2-yl)-4-(1H-indol-4-ylamino)-6-methylnicotinonitrile] yielded a melting point of 192 to 193 °C. In addition, the IC50 in series [1] turned out to be 113 nM.

For `Cc1ncc(C#N)c(Nc2ccc3[nH]ccc3c2C)c1-c1cc2ccccc2o1` [Example 11, 5-(1-benzofuran-2-yl)-6-methyl-4-[(4-methyl-1H-indol-5-yl)amino]nicotinonitrile], the melting point lay within 154 to 155 °C. In series [1], the concentration for half-maximal inhibition (IC50) came out at 13 nM.

In turn, `Cc1ncc(C#N)c(Nc2ccc3[nH]ccc3c2C)c1-c1ccc(OCCCl)cc1` [Example 12, 5-[4-(2-chloroethoxy)phenyl]-6-methyl-4-[(4-methyl-1H-indol-5-yl)amino]nicotinonitrile] had a melting point of 200 to 201 °C. Further, the IC50 in series [1] came out at 30 nM.

The compound `Cc1ncc(C#N)c(Nc2cccc3[nH]ccc23)c1-c1ccc(OCCCl)cc1` [Example 13, 5-[4-(2-chloroethoxy)phenyl]-4-(1H-indol-4-ylamino)-6-methylnicotinonitrile] returned a melting point of 185 to 186 °C. The IC50 in series [1] was found to be 150 nM.

`Cc1ncc(C#N)c(Nc2ccc3[nH]ccc3c2C)c1-c1ccc(OCCN2CCN(C)CC2)cc1` [Example 14, 6-methyl-4-[(4-methyl-1H-indol-5-yl)amino]-5-{4-[2-(4-methylpiperazin-1-yl)ethoxy]phenyl}nicotinonitrile] yielded a melting point of 183 to 184 °C. Also, the IC50 in series [1] worked out at 31 nM. Also, in series [2], the half-life – broadly, how long it takes for the measured level to halve – is > 30 min.

`Cc1ncc(C#N)c(Nc2ccc3[nH]ccc3c2C)c1-c1cc2cc(C=O)ccc2o1` [Example 15, 5-(5-formyl-1-benzofuran-2-yl)-6-methyl-4-[(4-methyl-1H-indol-5-yl)amino]nicotinonitrile] registered a melting point of 168 to 169 °C. For the same compound, the half-inhibitory concentration (IC50) in series [1] was 12 nM.

`Cc1ncc(C#N)c(Nc2ccc3[nH]ccc3c2C)c1-c1cc2cc(CN3CCN(C)CC3)ccc2o1` [Example 16, 6-methyl-4-[(4-methyl-1H-indol-5-yl)amino]-5-{5-[(4-methylpiperazin-1-yl)methyl]-1-benzofuran-2-yl}nicotinonitrile] came in with a melting point of 218 to 220 °C. For the same compound, the half-maximal inhibitory concentration (IC50) in series [1] was found to be 2.7 nM.
